Consider eleven molecules from patent US20250325677A1, “STAT6 DEGRADERS” (Gilead Sciences, Inc., priority 2024, published 2025).

Each structure is given as a SMILES string. Several values for one entry are separate records, joined by “and”; a condition that tells them apart may be missing. Equal entries are not always repeated.

One test relates to eotaxin-3 release. Kind of test: Human whole blood eotaxin-3 assay (IL-4 stimulated). The test is classed as cell-based. The note with it: human whole blood, IL-4 0.4 nM, 48 hours; geometric mean; given for compounds with >80% Emax; read-out: Eotaxin-3 EC50. An outline of the steps: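 Human whole blood was preincubated with compound for 120 min at 37 °C, then stimulated with recombinant human IL-4 (E. coli) at 0.4 nM final for 48 h. Inhibition of eotaxin-3 release gave EC50 values.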

The next test addresses STAT6 (Homo sapiens (Human), UniProt P42226). Description: STAT6 degrader assay (HiBiT, HeLa LgBiT clone 4.14). It is filed as cell-based. The note with it: HeLa LgBiT clone 4.14, 4-24 h; geometric mean; given for compounds with >80% Emax; read-out: STAT6 degradation DC50. An outline of the steps:
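HeLa LgBiT clone 4.14 cells with HiBiT knocked into endogenous STAT6 were treated with compound for 4-24 h at 37° C. Luminescence after Nano-GLO substrate (0.5 h) measured remaining STAT6; 50 μM terfenadine wells defined 100% degradation, and DC50 (nM) was derived.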

Chain of STAT6 (P42226 whole entry): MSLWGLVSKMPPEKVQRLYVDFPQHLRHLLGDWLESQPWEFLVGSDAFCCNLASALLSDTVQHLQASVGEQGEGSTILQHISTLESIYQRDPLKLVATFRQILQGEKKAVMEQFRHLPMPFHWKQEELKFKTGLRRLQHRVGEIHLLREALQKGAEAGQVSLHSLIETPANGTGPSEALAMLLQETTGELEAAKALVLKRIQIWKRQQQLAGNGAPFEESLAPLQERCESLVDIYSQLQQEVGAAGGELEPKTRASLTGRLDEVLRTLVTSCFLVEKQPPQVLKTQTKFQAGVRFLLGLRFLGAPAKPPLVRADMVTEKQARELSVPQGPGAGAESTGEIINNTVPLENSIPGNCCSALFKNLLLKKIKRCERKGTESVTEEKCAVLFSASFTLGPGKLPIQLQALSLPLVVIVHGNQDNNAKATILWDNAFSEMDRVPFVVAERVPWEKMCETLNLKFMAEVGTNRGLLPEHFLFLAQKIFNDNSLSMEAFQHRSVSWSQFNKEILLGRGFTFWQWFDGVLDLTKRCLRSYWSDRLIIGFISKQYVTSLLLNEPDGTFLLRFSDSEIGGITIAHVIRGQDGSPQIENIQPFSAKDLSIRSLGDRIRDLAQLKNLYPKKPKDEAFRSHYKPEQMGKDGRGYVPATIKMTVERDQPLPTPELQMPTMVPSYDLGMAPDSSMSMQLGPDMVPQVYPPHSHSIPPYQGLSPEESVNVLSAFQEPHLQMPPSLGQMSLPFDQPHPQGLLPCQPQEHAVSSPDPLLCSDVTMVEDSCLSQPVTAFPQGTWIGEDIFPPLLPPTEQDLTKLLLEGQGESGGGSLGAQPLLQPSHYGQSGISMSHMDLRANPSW

By EC50 is commonly meant the midpoint of the concentration-response curve. In general, DC50 refers to the concentration giving 50% degradation. Regarding `CC[C@H]1CN(Cc2ccc3c(c2)n(C)c(=O)n3C2CCC(=O)NC2=O)CCN1CC1CCN(C(=O)c2ccc(C3CCN([C@@H](C)c4cc5c(-c6ccc(N)nc6)ccnc5n4C)CC3)cc2)CC1` (stereo partly drawn) [Example 3e23, 3-(5-(((S)-4-((1-(4-(1-((S)-1-(4-(6-aminopyridin-3-yl)-1-methyl-1H-pyrrolo[2,3-b]pyridin-2-yl)ethyl)piperidin-4-yl)benzoyl)piperidin-4-yl)methyl)-3-ethylpiperazin-1-yl)methyl)-3-methyl-2-oxo-2,3-dihydro-1H-benzo[d]imidazol-1-yl)piperidine-2,6-dione], the EC50 in the test on eotaxin-3 release is 4.2 nM. In addition, at STAT6, the DC50 was determined as 0.8 nM.
For `C[C@@H](c1cc2c(-c3ccc(N)nc3)ccnc2n1C)N1CCC(c2ccc(C(=O)N3CCC(F)(CN4CCN(Cc5ccc6c(c5)n(C)c(=O)n6C5CCC(=O)NC5=O)CC4)CC3)cc2)CC1` (stereo partly drawn) [Example 3e32, 3-(5-((4-((1-(4-(1-((S)-1-(4-(6-aminopyridin-3-yl)-1-methyl-1H-pyrrolo[2,3-b]pyridin-2-yl)ethyl)piperidin-4-yl)benzoyl)-4-fluoropiperidin-4-yl)methyl)piperazin-1-yl)methyl)-3-methyl-2-oxo-2,3-dihydro-1H-benzo[d]imidazol-1-yl)piperidine-2,6-dione], in that order: 7.8 nM and 1.6 nM.
For `CNc1ccc(-c2ccnc3c2cc([C@H](C)N2CCC(c4ccc(C(=O)N5CCC(CN6CCN(Cc7ccc8c(c7)n(C7CC7)c(=O)n8C7CCC(=O)NC7=O)C[C@@H]6C)CC5)cc4)CC2)n3C)cn1` (stereo partly drawn) [Example 3h25, 3-(3-cyclopropyl-5-(((S)-3-methyl-4-((1-(4-(1-((S)-1-(1-methyl-4-(6-(methylamino)pyridin-3-yl)-1H-pyrrolo[2,3-b]pyridin-2-yl)ethyl)piperidin-4-yl)benzoyl)piperidin-4-yl)methyl)piperazin-1-yl)methyl)-2-oxo-2,3-dihydro-1H-benzo[d]imidazol-1-yl)piperidine-2,6-dione], in that order: 3.4 nM and 1.9 nM.
For `C[C@H]1CN(Cc2ccc3c(c2)n(C)c(=O)n3C2CCC(=O)NC2=O)CCN1CC1CCN(C(=O)c2ccc(C3CCN([C@@H](C)c4cc5c(-c6ccc(N)nc6)ccnc5n4C)CC3)cc2)CC1` (stereo partly drawn) [Example 3e16, 3-(5-(((S)-4-((1-(4-(1-((S)-1-(4-(6-aminopyridin-3-yl)-1-methyl-1H-pyrrolo[2,3-b]pyridin-2-yl)ethyl)piperidin-4-yl)benzoyl)piperidin-4-yl)methyl)-3-methylpiperazin-1-yl)methyl)-3-methyl-2-oxo-2,3-dihydro-1H-benzo[d]imidazol-1-yl)piperidine-2,6-dione], in that order: 1.3 nM and 0.4 nM.
With `CNc1ccc(-c2ccnc3c2cc([C@H](C)N2CC=C(c4c(C)cc(C(=O)N5CCC(CN6CCN(Cc7cc8c(cc7F)N(C7CCC(=O)NC7=O)C(=O)C87CC7)CC6)CC5)cc4F)CC2)n3C)cn1` (stereo partly drawn) [Example 3h34, 3-(6′-fluoro-5′-((4-((1-(3-fluoro-5-methyl-4-(1-((S)-1-(1-methyl-4-(6-(methylamino)pyridin-3-yl)-1H-pyrrolo[2,3-b]pyridin-2-yl)ethyl)-1,2,3,6-tetrahydropyridin-4-yl)benzoyl)piperidin-4-yl)methyl)piperazin-1-yl)methyl)-2′-oxospiro[cyclopropane-1,3′-indolin]-1′-yl)piperidine-2,6-dione], in the test with eotaxin-3 release, the half-maximal effective concentration (EC50) amounted to 8.5 nM. The DC50 at STAT6 was determined as 5.5 nM.
For `COCc1nc2cc(-c3ccnc4c3cc([C@H](C)N3CCC(c5ccc(C(=O)N6CCC(CN7CCN(Cc8ccc9c(c8)n(C8CC8)c(=O)n9C8CCC(=O)NC8=O)C[C@@H]7C)CC6)cc5)CC3)n4C)ccc2[nH]1` (stereo partly drawn) [Example 3e27, 3-(3-cyclo-propyl-5-(((S)-4-((1-(4-(1-((S)-1-(4-(2-(methoxymethyl)-1H-benzo[d]imidazol-5-yl)-1-methyl-1H-pyrrolo[2,3-b]pyridin-2-yl)ethyl)piperidin-4-yl)benzoyl)piperidin-4-yl)methyl)-3-methylpiperazin-1-yl)methyl)-2-oxo-2,3-dihydro-1H-benzo[d]imidazol-1-yl)piperidine-2,6-dione], in that order: 2.7 nM and 0.4 nM.
For `C[C@H]1CN(Cc2ccc3c(c2)oc(=O)n3C2CCC(=O)NC2=O)CCN1CC1CCN(C(=O)c2ccc(C3CCN([C@@H](C)c4cc5c(-c6ccc(N)nc6)ccnc5n4C)CC3)cc2)CC1` (stereo partly drawn) [Example 3n6, 3-(6-(((S)-4-((1-(4-(1-((S)-1-(4-(6-aminopyridin-3-yl)-1-methyl-1H-pyrrolo[2,3-b]pyridin-2-yl)ethyl)piperidin-4-yl)benzoyl)piperidin-4-yl)methyl)-3-methylpiperazin-1-yl)methyl)-2-oxobenzo[d]oxazol-3 (2H)-yl)piperidine-2,6-dione], in the test on eotaxin-3 release, the EC50 is 4 nM. Moreover, at STAT6, the DC50 came out at 0.7 nM.
For `COCc1nc2cc(-c3ccnc4c3cc(CN3CCC(c5ccc(C(=O)N6CCC(CN7CCN(Cc8ccc9c(c8)n(C)c(=O)n9C8CCC(=O)NC8=O)CC7)CC6)cc5)CC3)n4C)ccc2[nH]1` (stereo not shown) [Example 3e3, 3-(5-((4-((1-(4-(1-((4-(2-(methoxymethyl)-1H-benzo[d]imidazol-5-yl)-1-methyl-1H-pyrrolo[2,3-b]pyridin-2-yl)methyl)piperidin-4-yl)benzoyl)piperidin-4-yl)methyl)piperazin-1-yl)methyl)-3-methyl-2-oxo-2,3-dihydro-1H-benzo[d]imidazol-1-yl)piperidine-2,6-dione], in that order: 14.4 nM and 0.8 nM.
Take `C[C@H]1CN(Cc2ccc3c(c2)n(C2CC2)c(=O)n3C2CCC(=O)NC2=O)CCN1CC1CCN(C(=O)c2ccc(C3CCN(Cc4cc5c(-c6ccc(N)nc6)ccnc5n4C)CC3)cc2)CC1` (stereo partly drawn) [Example 3e13, 3-(5-(((S)-4-((1-(4-(1-((4-(6-aminopyridin-3-yl)-1-methyl-1H-pyrrolo[2,3-b]pyridin-2-yl)methyl)piperidin-4-yl)benzoyl)piperidin-4-yl)methyl)-3-methylpiperazin-1-yl)methyl)-3-cyclopropyl-2-oxo-2,3-dihydro-1H-benzo[d]imidazol-1-yl)piperidine-2,6-dione]: the EC50 with eotaxin-3 release turned out to be 37.6 nM. In addition, the DC50 on STAT6 was 0.9 nM and 1.1 nM.
Take `C[C@H]1CN(Cc2ccc3c(c2)n(C)c(=O)n3C2CCC(=O)NC2=O)CCN1CC1CCN(C(=O)c2ccc(C3CCN([C@@H](C)c4cc5c(-c6ccc(N)nc6C#N)ccnc5n4C)CC3)cc2)CC1` (stereo partly drawn) [Example 3e55, 6-amino-3-(2-((1S)-1-(4-(4-(4-(((2S)-4-((1-(2,6-dioxopiperidin-3-yl)-3-methyl-2-oxo-2,3-dihydro-1H-benzo[d]imidazol-5-yl)methyl)-2-methylpiperazin-1-yl)methyl)piperidine-1-carbonyl)phenyl)-piperidin-1-yl)ethyl)-1-methyl-1H-pyrrolo[2,3-b]pyridin-4-yl)picolinonitrile]: the EC50 in the test on eotaxin-3 release came out at 1.5 nM. The DC50 on STAT6 is 0.5 nM.
On the same counts, the results for `C[C@H]1CN(Cc2ccc3c(c2)C(C)(C)C(=O)N3C2CCC(=O)NC2=O)CCN1CC1CCN(C(=O)c2ccc(C3CCN([C@@H](C)c4cc5c(-c6ccc(N)nc6)ccnc5n4C)CC3)cc2)CC1` (stereo partly drawn) [Example 3r2, 3-(5-(((S)-4-((1-(4-(1-((S)-1-(4-(6-aminopyridin-3-yl)-1-methyl-1H-pyrrolo[2,3-b]pyridin-2-yl)ethyl)piperidin-4-yl)benzoyl)piperidin-4-yl)methyl)-3-methylpiperazin-1-yl)methyl)-3,3-dimethyl-2-oxoindolin-1-yl)piperidine-2,6-dione] are 14.7 nM and 4.1 nM.
